In US5317095A, “Alpha-D-glycosyl kasugamycin, its preparation, and antibacterial agent containing the same” (Hayashibara Biochemical Laboratories, Inc., priority 1992, dated 1994):
Where two headings read alike, the source gives them in different places.

Experiments:
[1] = pH Stability test of α-D-glucosyl kasugamycin; assay type: physicochemical; details: 120° C. for 1 hour; for remaining at 1 h: buffer, read-out: Residue (%); for remaining at 1 h / Residue (%): mean, n = 5
Procedure: Fifty μl of 2.56 w/v % aqueous solution of α-D-glucosyl kasugamycin (purity: about 80%), which was prepared according to the method described in Example 3 was mixed with 450 μl of a buffer adjusted to pH 2.0, 4.0, 6.0, 8.0 or 10.0. The mixture was kept at 120° C. for 1 hour in a well-closed container. As the buffer was used 1M HCl- Sodium acetate buffer (pH 2.0 or pH 4.0), 1M acetic acid buffer (pH 6.0), 1M Tris-HCl buffer (pH 8.0) or 1M NH4 OH- NH4 Cl buffer (pH 10.0).
Each of thus obtained mixtures was cooled with a running water. Then, the mixture was diluted 5 times with 0.5M Na3 PO4 -H3 PO4 (pH 6.0). Successively, the diluted mixture subjected to HPLC under the following conditions.
As a comparison was used a sample obtained by diluting 5 times a mixture of 50 μl of 2.56 w/v % aqueous solution of α-D-glucosyl kasugamycin and 450 μl of deionized water with 0.5M Na3 PO4 -H3 PO4 (pH 6.0).
Residue was calculated on the basis of a ratio of the peak area of α-D-glucosyl kasugamycin in each treated mixture to that in the sample as a comparison.
Also, 1.0 w/v % aquous solution of kasugamycin purchased from Hokko Kagaku Kogyo Kabushiki Kaisha was treated in the same manner as described in the case of α-D-glucosyl kasugamycin. Residue in each pH condition was calculated.
Column: ODS-M (commercially avairable from Shimazu Techno Research Co., Ltd.)
Eluate: Acetonitrile/Water*=8/92 (v/v) *0.2M CH3 (CH2)5 SO3 Na (pH was not adjusted) 0.005M Na3 PO4 -H3 PO4 (pH 6.0)

[2] = Stability in aqueous solution; assay type: physicochemical; details: pH in the range from 3.0 to 7.0
Solubility in solvents = assay type: physicochemical
[3] = system: α-glucosidase derived from seeds of rice plant; experiment: Hydrolysis by α-glucosidase derived from seeds of rice plant; assay type: in vitro ADME; details: enzyme from seeds of rice plant; forms 1 mole of D-glucose per 1 mole of kasugamycin
[4] = system: α-glucosidase derived from microorganisms of the genus Mucor; experiment: Hydrolysis by α-glucosidase derived from microorganisms of the genus Mucor; assay type: in vitro ADME; details: enzyme from genus Mucor; forms 1 mole of D-glucose per 1 mole of kasugamycin
[5] = system: α-glucosidase derived from pig liver; experiment: Hydrolysis by α-glucosidase derived from pig liver; assay type: in vitro ADME; details: pig liver enzyme; forms 1 mole of D-glucose per 1 mole of kasugamycin
dd mice = experiment: Acute toxicity; assay type: in vivo; details: peritoneally administered; 7 week-old dd mice; highest dose 3,000 mg per kg body weight
From the text: The α-D-glucosyl kasugamycin was peritoneally administered to 7 week-old dd mice for acute toxicity test.

C[C@H]1O[C@H](O[C@H]2[C@H](O)[C@@H](O)[C@@H](O)[C@H](O)[C@@H]2O)[C@@H](N)C[C@@H]1NC(=N)C(=O)O [Kasugamycin, kasugamycin]
remaining at 1 h ([1]; pH 2.0): 76% | remaining at 1 h ([1]; pH 4.0): 72.1% | remaining at 1 h ([1]; pH 6.0): 26.8% | remaining at 1 h ([1]; pH 8.0): 9.5% | Residue (%) ([1]; pH 10.0): trace

α-D-glucosyl kasugamycin
Residue (%) ([1]; pH 2.0): 76.2% | Residue (%) ([1]; pH 4.0): 75.2% | Residue (%) ([1]; pH 6.0): 26.9% | times stabler than kasugamycin ([1]; pH 8.0, 17.6/9.5): approximately 1.85 times | Residue (%) ([1]; pH 8.0): 17.6% | Residue (%) ([1]; pH 10.0): trace | Stability in an aqueous solution [2]: excellently stable | Solubility in 0.1N hydrochloric acid (Solubility in solvents; 0.1N hydrochloric acid): readily soluble | Solubility in 0.1N sodium hydroxide (Solubility in solvents; 0.1N sodium hydroxide): readily soluble | Solubility in acetic acid (Solubility in solvents; acetic acid): readily soluble | Solubility in chloroform (Solubility in solvents; chloroform): insoluble | Solubility in ethanol (Solubility in solvents; ethanol): substantially insoluble | Solubility in ethyl acetate (Solubility in solvents; ethyl acetate): insoluble | Solubility in methanol (Solubility in solvents; methanol): substantially insoluble | Solubility in water (Solubility in solvents; water): readily soluble | solubility in water relative to that of kasugamycin (Solubility in solvents; water, room temperature, vs kasugamycin): not less than fivefold | Hydrolysis by α-glucosidase [3]: readily hydrolyed | Hydrolysis by α-glucosidase [4]: readily hydrolyed | Hydrolysis by α-glucosidase [5]: readily hydrolyed | deaths (acute toxicity) (dd mice): not observed any deaths
